One assay addresses Kes1p^LH201/202FN (Saccharomyces cerevisiae, UniProt P35844, L201F/H202N). As to the kind of experiment: competitive displacement of photo-probe from purified mutant protein. In kind it is binding.
The target in a further assay is Kes1p (Saccharomyces cerevisiae, UniProt P35844). As to the kind of experiment: competitive displacement of [3H]BZDC-PI. Format: binding. For orientation: In a radioligand displacement assay an active substance lowers the binding of a labelled ligand.

Here are results for one substance from article PMC2173257 (The Journal of Cell Biology, 2002).

Turning to PI(4,5)P2, the values for the IC50 on Kes1p^LH201/202FN and on Kes1p were 6.1 µM and 1900 nM, respectively.

By IC50 is commonly meant the midpoint of a concentration-inhibition curve. A high value points to weaker potency.
